Here are results for 11 compounds from publication PMC8883477 (Journal of Medicinal Chemistry, 2022).

Structures are written as SMILES. In brackets after ≈: the same amount, converted by molar mass. Several values for one entry are separate records, joined by “and”; a condition that tells them apart may be missing. Equal entries are not always repeated. Where only a bound is given, the exact number is not on record here.

Data set [1] concerns the target Keap1 (Kelch domain = aa321–aa609) (Homo sapiens, UniProt Q14145). Put plainly: biochemical. Particulars: KD SPR, supplementary CSV; ISA format.
Data set [2] in a line: physchem. As to conditions: pH 7.4.
A short description of data set [3]: physchem. As to conditions: pH 7.4. The source holds these as a separate data set.
The conditions of data set [4]: DMSO-d6, 25–85 °C.

For `CC(=O)N(CC(=O)N1CCC[C@H]1C(=O)N[C@@H]1COC(=O)c2ccccc2CSC[C@H](C(=O)N(C)C)NC1=O)c1ccccc1` [Compound S11], the equilibrium dissociation constant (Kd) in data set [1] stood at 63.6 µM.
In the case of `CN(C)C(=O)[C@H]1CSCc2ccccc2C(=O)OC[C@@H](NC(=O)[C@@H]2CCCN2C(=O)c2ccccc2NS(C)(=O)=O)C(=O)N1` [Compound S8], in data set [1], the Kd is 15.3 µM.
As for `CN(C)C(=O)[C@H]1CSCc2ccccc2C(=O)OC[C@@H](NC(=O)[C@@H]2CCCN2C(=O)c2ccccc2-n2cnnn2)C(=O)N1` [Compound S21], the Kd in data set [1] stood at 13 µM.
The compound `CC(=O)N1CCC[C@H]1C(=O)N[C@@H]1COC(=O)c2cccc(-c3ccc(C(=O)O)cc3)c2CSC[C@H](C(=O)N(C)C)NC1=O` [Compound 64, 4-((4S,7R)-7-((S)-1-Acetylpyrrolidine-2-carboxamido)-4-(dimethylcarbamoyl)-6,10-dioxo-1,3,4,5,6,7,8,10-octahydrobenzo[j][1]oxa[8]thia[5]azacyclododecin-14-yl)benzoic Acid] showed a solubility in the data set “physchem [2]” above 850 µM. This compound returned a logD in “physchem [3]” below -1.5.
Regarding `CC(=O)N1CCC[C@H]1C(=O)N[C@@H]1COC(=O)c2cccc(-c3cc(C)c(C(=O)O)c(C)c3)c2CSC[C@H](C(=O)N(C)C)NC1=O` [Compound 77, 4-((4S,7R)-7-((S)-1-Acetylpyrrolidine-2-carboxamido)-4-(dimethylcarbamoyl)-6,10-dioxo-1,3,4,5,6,7,8,10-octahydrobenzo[j][1]oxa[8]thia[5]azacyclododecin-14-yl)-2,6-dimethylbenzoic Acid], the solubility in “physchem [2]” came out at 965 ± 38 µM (≈ 616 µg/mL). The compound also had a logD in “physchem [3]” below -1.4.
The like results for `CC(=O)N1CCC[C@H]1C(=O)N[C@@H]1COC(=O)c2cccc(-c3cc(F)c(C(=O)O)c(F)c3)c2CSC[C@H](C(=O)N(C)C)NC1=O` [Compound 78, 4-((4S,7R)-7-((S)-1-Acetylpyrrolidine-2-carboxamido)-4-(dimethylcarbamoyl)-6,10-dioxo-1,3,4,5,6,7,8,10-octahydrobenzo[j][1]oxa[8]thia[5]azacyclododecin-14-yl)-2,6-difluorobenzoic Acid] were, in that order, above 1000 µM and below -0.8.
For `COC(=O)CCC(=O)N1CCC[C@H]1C(=O)N[C@@H]1COC(=O)c2ccccc2CSC[C@H](C(=O)N(C)C)NC1=O` [Compound S3], the affinity in data set [1], expressed as Kd, was 17.1 µM. This lies in the double-digit micromolar range.
In turn, `CN(C)C(=O)[C@H]1CSCc2ccccc2C(=O)OC[C@@H](NC(=O)[C@@H]2CCCN2C(=O)Cc2cc3ccccc3s2)C(=O)N1` [Compound S13] had a Kd in data set [1] of 35.4 µM.
Turning to `CN(C)C(=O)[C@H]1CSCc2ccccc2C(=O)OC[C@@H](NC(=O)[C@@H]2CCCN2C(=O)c2cccn(C)c2=O)C(=O)N1` [Compound S7], the affinity in data set [1], expressed as Kd, was 14.7 µM.
For the compound `CC(=O)N1CCC[C@H]1C(=O)N[C@@H]1COC(=O)c2ccccc2COC[C@H](C(=O)N(C)C)NC1=O` [Compound 6, (4R,7R)-7-((S)-1-Acetylpyrrolidine-2-carboxamido)-N,N-dimethyl-6,10-dioxo-1,3,4,5,6,7,8,10-octahydrobenzo[j][1,8]dioxa[4]azacyclododecine-4-carboxamide], in data set [4], the “Δδ/T, NHA (cysteine NH)” value came to 3.50 ppb/K; the “Δδ/T, NHB (serine NH)” value is 3.5 ppb/K and 3.53 ppb/K.
In data set [1], `CN(C)C(=O)[C@H]1CSCc2ccccc2C(=O)OC[C@@H](NC(=O)[C@@H]2CCCN2C(=O)Cc2cccnc2)C(=O)N1` [Compound S16] gave a Kd of 51 µM.
